{"source": "PubChem BioAssay AID1259409", "about": "(Chemical Carcinogenesis Research Information System (CCRIS), 2018)", "origin": "cited, not measured here", "tested_on": "rodent chemically induced tumor inhibition, incidence and multiplicity", "assay": "CCRIS tumor inhibitor studies", "data": [{"smiles": "CC(=O)O[C@@H]1C(=O)O[C@H]2[C@@H]1OC(=O)[C@@H]2OC(C)=O", "values": [{"measurement": "tumour outcome (control, treated, inhibition, significance)", "setting": "Carcinogen: 2-(ACETYLAMINO)FLUORENE, 6292-55-3, Dose [Inhibitor]: 1.2% IN DIET SIMULTANEOUSLY WITH CARCINOGEN (STUDY DURATION: 30 WK), Route [Inhibitor]: ORAL, Species: RAT, Strain/Sex: WISTAR/MALE, Target Tissue: Type of Lesion: URINARY BLADDER: TUMOR, Dose [Carcinogen]: 0.04% IN DIET SUPPLEMENTED WITH 1.4% D,L-TRYPTOPHAN, Promoter: NONE USED", "value": "7/45 (20%), 11/40 (28%), -40%, not calculated"}, {"measurement": "tumour outcome (control, treated, inhibition, significance)", "setting": "Carcinogen: 2-(ACETYLAMINO)FLUORENE, 6292-55-3, Dose [Inhibitor]: 1.2% IN DIET SIMULTANEOUSLY WITH CARCINOGEN (STUDY DURATION: 30 WK), Route [Inhibitor]: ORAL, Species: RAT, Strain/Sex: WISTAR/MALE, Target Tissue: Type of Lesion: URINARY BLADDER: TUMOR, Dose [Carcinogen]: 0.04% IN VITAMIN B6 DEFICIENT DIET, Promoter: NONE USED", "value": "6/33 (18%), 2/38 (5%), 72%, not calculated"}, {"measurement": "tumour outcome (control, treated, inhibition, significance)", "setting": "Carcinogen: 7,12-DIMETHYLBENZ[A]ANTHRACENE, 57-97-6, Dose [Inhibitor]: 400 MG/KG, 30 MIN BEFORE DMBA TREATMENT AND 3 HR AFTER DMBA TREATMENT (STUDY DURATION: 36 WK), Route [Inhibitor]: INTRAGASTRIC, Species: RAT, Strain/Sex: SPRAGUE-DAWLEY/FEMALE, Target Tissue: Type of Lesion: MAMMARY GLAND: TUMOR, Dose [Carcinogen]: 130 MG/KG ONCE, Promoter: NONE USED", "value": "92%, 22%, 76%, not calculated"}]}, {"smiles": "O=C(c1ccc(O)cc1O)C(c1coc2cc(O)ccc2c1=O)C(c1ccc(O)cc1)c1ccc(O)cc1", "note": "(configuration not stated)", "values": [{"measurement": "tumour outcome (control, treated, inhibition, significance)", "setting": "Carcinogen: 7,12-DIMETHYLBENZ[A]ANTHRACENE, 57-97-6, Dose [Inhibitor]: 0, 16 NMOL 2/WK 1 HR PRIOR TO EACH PROMOTER DOSE FOR 20 WK (STUDY DURATION: 20 WK), Route [Inhibitor]: DERMAL, Species: MOUSE, Strain/Sex: ICR/FEMALE, Target Tissue: Type of Lesion: SKIN: TUMOR, Dose [Carcinogen]: 0.19 UMOL ONCE, Promoter: 12-0-TETRADECANOYLPHORBOL-13-ACETATE, 16561-29-8", "value": "70%, 60%, 14%, not calculated"}]}, {"smiles": "Brc1cc2c(cc1Br)Oc1cc(Br)c(Br)cc1O2", "values": [{"measurement": "tumour outcome (control, treated, inhibition, significance)", "setting": "Carcinogen: 7,12-DIMETHYLBENZ[A]ANTHRACENE, 57-97-6, Dose [Inhibitor]: 0, 17 NMOL 2/WK APPLIED 1 HR PRIOR TO EACH PROMOTER DOSE FOR 10 WK (STUDY DURATION: 11 WK), Route [Inhibitor]: DERMAL, Species: MOUSE, Target Tissue: Type of Lesion: SKIN: TUMOR, Dose [Carcinogen]: 390 NMOL ONCE, Promoter: 12-O-TETRADECANOYLPHORBOL-13-ACETATE, 16561-29-8", "value": "100%, 0%, 100%, not calculated"}]}, {"smiles": "CC(=O)NCCCCCCNC(C)=O", "values": [{"measurement": "tumour outcome (control, treated, inhibition, significance)", "setting": "Carcinogen: 7,12-DIMETHYLBENZ[A]ANTHRACENE, 57-97-6, Dose [Inhibitor]: 0, 1% IN DRINKING WATER FOR DURATION OF STUDY (STUDY DURATION: 13 WK), Route [Inhibitor]: ORAL, Species: HAMSTER, Strain/Sex: SYRIAN/MALE, Target Tissue: Type of Lesion: CHEEK POUCH: TUMOR, Dose [Carcinogen]: 0.5% IN ACETONE/HEAVY MINERAL OIL (1:20) 2/WK FOR 11 WK, Promoter: NONE USED", "value": "13/13 (100%), 13/13 (100%), 0%, not significant"}, {"measurement": "tumour outcome (control, treated, inhibition, significance)", "setting": "Carcinogen: 7,12-DIMETHYLBENZ[A]ANTHRACENE, 57-97-6, Dose [Inhibitor]: 0, 500 MG/KG BW 3/WK FOR DURATION OF STUDY (STUDY DURATION: 13 WK), Route [Inhibitor]: INTRAPERITONEAL, Species: HAMSTER, Strain/Sex: SYRIAN/MALE, Target Tissue: Type of Lesion: CHEEK POUCH: TUMOR, Dose [Carcinogen]: 0.5% IN ACETONE/HEAVY MINERAL OIL (1:20) 2/WK FOR 11 WK, Promoter: NONE USED", "value": "13/13 (100%), 13/13 (100%), 0%, not significant"}, {"measurement": "tumour outcome (control, treated, inhibition, significance)", "setting": "Carcinogen: N-METHYL-N-NITROSOUREA [684-93-5], Dose [Inhibitor]: 1000 PPM IN DIET FOR 19 WK BEGINNING 1 WK PRIOR TO FIRST CARCINOGEN DOSE (STUDY DURATION: 19 WK), Route [Inhibitor]: ORAL, Species: RAT, Strain/Sex: SPRAGUE-DAWLEY/FEMALE, Target Tissue: Type of Lesion: MAMMARY GLAND: TUMOR, Dose [Carcinogen]: 40 MG/KG BW ONCE (STUDY DURATION: 19 WK), Promoter: NONE", "value": "18/20 (90%), 17/20 (85%), 6% not significant"}, {"measurement": "tumour outcome (control, treated, inhibition, significance)", "setting": "Carcinogen: N-METHYL-N-NITROSOUREA [684-93-5], Dose [Inhibitor]: 2000 PPM IN DIET FOR 19 WK BEGINNING 1 WK PRIOR TO FIRST CARCINOGEN DOSE (STUDY DURATION: 19 WK), Route [Inhibitor]: ORAL, Species: RAT, Strain/Sex: SPRAGUE-DAWLEY/FEMALE, Target Tissue: Type of Lesion: MAMMARY GLAND: TUMOR, Dose [Carcinogen]: 40 MG/KG BW ONCE (STUDY DURATION: 19 WK), Promoter: NONE", "value": "18/20 (90%), 17/20 (85%), 6%, not significant"}]}, {"smiles": "CC(C)=CCC/C(C)=C/C=O", "values": [{"measurement": "outcome", "setting": "Carcinogen: DIMETHYLBENZANTHRACENE, 57-97-6, Dose [Inhibitor]: 0, 1 UMOL IN ACETONE 2/WK ADMINISTERED PRIOR TO EACH PROMOTER DOSE FOR 20 WK (STUDY DURATION: 21 WK), Route [Inhibitor]: DERMAL, Species: MOUSE, Strain/Sex: SKH/HR1/FEMALE, Target Tissue: Type of Lesion: SKIN: TUMOR, Dose [Carcinogen]: 0.1 UMOL IN 0.1 ML ACETONE ONCE, Promoter: TPA, 16561-29-8", "value": "88%, 72%, 18%, p 0.05 at 10 wk of promotion: 96%, 96%, 0%, not calculated at 15"}]}, {"smiles": "N#C[Se]Cc1ccccc1", "values": [{"measurement": "tumour outcome (control, treated, inhibition, significance)", "setting": "Carcinogen: 7,12-DIMETHYLBENZ[A]ANTHRACENE, 57-97-6, Dose [Inhibitor]: 0, 1 PPM (AS SELENIUM) IN DIET BEGINNING 2 WK PRIOR TO CARCINOGEN DOSE AND CONTINUING FOR DURATION OF STUDY (STUDY DURAT, Route [Inhibitor]: ORAL, Species: RAT, Strain/Sex: SPRAGUE-DAWLEY/FEMALE, Target Tissue: Type of Lesion: MAMMARY GLAND: ADENOCARCINOMA, Dose [Carcinogen]: 10 MG ONCE AT 55 D OF AGE, Promoter: NONE USED", "value": "88%, 56%, 36%, p<0.05"}, {"measurement": "tumour outcome (control, treated, inhibition, significance)", "setting": "Carcinogen: 7,12-DIMETHYLBENZ[A]ANTHRACENE, 57-97-6, Dose [Inhibitor]: 0, 2 PPM (AS SELENIUM) IN DIET BEGINNING 2 WK PRIOR TO CARCINOGEN DOSE AND CONTINUING FOR DURATION OF STUDY (STUDY DURAT, Route [Inhibitor]: ORAL, Species: RAT, Strain/Sex: SPRAGUE-DAWLEY/FEMALE, Target Tissue: Type of Lesion: MAMMARY GLAND: ADENOCARCINOMA, Dose [Carcinogen]: 10 MG ONCE AT 55 D OF AGE, Promoter: NONE USED", "value": "88%, 40%, 55%, p<0.05"}, {"measurement": "tumour outcome (control, treated, inhibition, significance)", "setting": "Carcinogen: 7,12-DIMETHYLBENZ[A]ANTHRACENE, 57-97-6, Dose [Inhibitor]: 0, 3 PPM (AS SELENIUM) IN DIET BEGINNING 2 WK PRIOR TO CARCINOGEN DOSE AND CONTINUING FOR DURATION OF STUDY (STUDY DURAT, Route [Inhibitor]: ORAL, Species: RAT, Strain/Sex: SPRAGUE-DAWLEY/FEMALE, Target Tissue: Type of Lesion: MAMMARY GLAND: ADENOCARCINOMA, Dose [Carcinogen]: 10 MG ONCE AT 55 D OF AGE, Promoter: NONE USED", "value": "88%, 40%, 55%, p<0.05"}, {"measurement": "tumour outcome (control, treated, inhibition, significance)", "setting": "Carcinogen: 7,12-DIMETHYLBENZ[A]ANTHRACENE, 57-97-6, Dose [Inhibitor]: 0, 25 PPM IN DIET BEGINNING 2 WK PRIOR TO CARCINOGEN DOSE AND CONTINUING FOR 1 WK POST CARCINOGEN DOSE (STUDY DURATION:, Route [Inhibitor]: ORAL, Species: RAT, Strain/Sex: SPRAGUE-DAWLEY/FEMALE, Target Tissue: Type of Lesion: MAMMARY GLAND: TUMOR, Dose [Carcinogen]: 10 MG IN 1 ML OLIVE OIL ONCE AT 7 WK OF AGE, Promoter: NONE USED", "value": "19/21 (91%), 13/21 (62%), 32%, p<0.05"}, {"measurement": "tumour outcome (control, treated, inhibition, significance)", "setting": "Carcinogen: BENZO[A]PYRENE, 50-32-8, Dose [Inhibitor]: 0, 0.045 UMOL/G DIET BEGINNING 1 WK PRIOR TO CARCINOGEN TREATMENT AND CONTINUING FOR 1 WK POST CARCINOGEN TREATMENT FOLL, Route [Inhibitor]: ORAL, Species: MOUSE, Strain/Sex: CD-1/FEMALE, Target Tissue: Type of Lesion: FORESTOMACH: PAPILLOMA, Dose [Carcinogen]: 1 MG IN 0.2 ML CORN OIL 2/WK FOR 4 WK, Promoter: NONE USED", "value": "85%, 79%, 7%, not significant"}]}, {"smiles": "COc1cc2ccc(=O)oc2cc1O", "values": [{"measurement": "tumour outcome (control, treated, inhibition, significance)", "setting": "Carcinogen: 7,12-DIMETHYLBENZ[A]ANTHRACENE, 57-97-6, Dose [Inhibitor]: 0.068 MMOL/G IN DIET FOR 8 D BEGINNING 1 WK PRIOR TO CARCINOGEN DOSE (STUDY DURATION: 23 WK), Route [Inhibitor]: ORAL, Species: RAT, Strain/Sex: SPRAGUE-DAWLEY/FEMALE, Target Tissue: Type of Lesion: MAMMARY GLAND: TUMOR, Dose [Carcinogen]: 12 MG IN 1.0 ML OLIVE OIL ONCE, Promoter: NONE USED", "value": "100%, 78%, 22%, not significant"}, {"measurement": "tumour outcome (control, treated, inhibition, significance)", "setting": "Carcinogen: BENZO[A]PYRENE, 50-32-8, Dose [Inhibitor]: 0.034 MMOL/G IN DIET BEGINNING 1 WK PRIOR TO FIRST CARCINOGEN DOSE AND CONTINUING FOR 3 D POST LAST CARCINOGEN DOSE FOR, Route [Inhibitor]: ORAL, Species: MOUSE, Strain/Sex: ICR/HA/FEMALE, Target Tissue: Type of Lesion: FORESTOMACH: TUMOR, Dose [Carcinogen]: 1 MG IN 0.2 ML CORN OIL 2/WK FOR 4 WK, Promoter: NONE USED", "value": "100%, 100%, 0%, not significant"}]}]}
